Source: patent publication US20250213574A1, “THERAPEUTIC COMBINATIONS COMPRISING UBIQUITIN- SPECIFIC-PROCESSING PROTEASE 1 (USP1) INHIBITORS AND CHEMOTHERAPY AGENTS” (KSQ Therapeutics, Inc., priority 2022, published 2025)
Values joined by “and” are separate entries in the source; they are usually repeats but may differ in a detail not shown here. Equal entries are not always repeated. Where two headings read alike, the source gives them in different places. Values belong to the compound of their own block, whether it stands above or below them.

Key:
Assay type in all cases: cell-based
ASPC1 = test: Colony formation (CFU) assay, ASPC1; conditions: ASPC1, pancreas
Method: (§1) In vitro experiments were conducted using the colony formation unit (CFU) assay on various cell lines. The CFU assay involved first establishing what cell plating density enabled the development of clearly interspersed colonies on a six-well plate when left to grow for around 14 days. […] At or around day 14 when clearly interspersed colonies were visible in the DMSO-treated wells, the cells were fixed and stained using 0.1% crystal violet in 10% ethanol for 20 minutes at room temperature. The plates were imaged then the amount of crystal violet stain in each well was quantified by extracting the crystal violet into 10% acetic acid and the absorbance measured at 565 nm.
(§2) For certain cell lines, multiple IC50 values were taken, and those are separated by commas. Synergy scores are in parentheticals.

CAPAN2 = test: Colony formation (CFU) assay, CAPAN2; conditions: CAPAN2, pancreas, CFU ~14 days, wells with DMSO or 300 nM Compound 1, read-out: Chemotherapy nM IC50s
Method: as §1, §2

COV362 = test: Colony formation (CFU) assay, COV362; conditions: COV362, 336 h, read-out: Chemotherapy nM IC50s
Method: as §1, §2

GSU = test: Colony formation (CFU) assay, GSU; conditions: stomach, chemotherapy agent in combination with 300 nM Compound 1
Method: as §1, §2

HCT15 = test: Colony formation (CFU) assay, HCT15; conditions: Homo sapiens, HCT-15, 336 h; HCT15, colon; CFU ~14 days; wells with DMSO or 300 nM Compound 1; read-out: Chemotherapy nM IC50s
Method: as §1, §2

HPAC = test: Colony formation (CFU) assay, HPAC; conditions: Homo sapiens, 336 h, pancreas, CFU ~14 days, wells with DMSO or 300 nM Compound 1, read-out: Chemotherapy nM IC50s
Method: as §1, §2

OVSAHO = test: Colony formation (CFU) assay, OVSAHO; conditions: Homo sapiens, 336 h, ovary, CFU ~14 days, wells with DMSO or 300 nM Compound 1, read-out: Chemotherapy nM IC50s
Method: as §1, §2

SW948 = test: Colony formation (CFU) assay, SW948; conditions: SW948, colon; for IC50: CFU ~14 days, wells with DMSO or 300 nM Compound 1, read-out: Chemotherapy nM IC50s
Method: as §1, §2

UWB1289 = test: Colony formation (CFU) assay, UWB1289; conditions: 336 h; UWB1289, ovary; CFU ~14 days; wells with DMSO or 300 nM Compound 1; read-out: Chemotherapy nM IC50s
Method: as §1, §2

various cell lines = test: Colony formation (CFU) assay, summary over cell lines of Table 1; conditions: combination of USP1 inhibitor (Compound 1, 300 nM) and the chemotherapy agent
Method: as §1
In certain cell lines, combinations of the disclosure are synergistic. In some aspects, these combinations are determined to have a Bliss score is about 6, about 7, about 8, about 9, about 10, about 11, about 12, about 13, about 14, about 15, about 16, about 17, about 18, about 19, about 20 or about 25.

A549 = test: Colony formation (CFU) assay, A549; conditions: Homo sapiens, 336 h; A549, lung; CFU ~14 days; wells with DMSO or 300 nM Compound 1; read-out: Chemotherapy nM IC50s
Method: as §1, §2

ACCMESO1 = test: Colony formation (CFU) assay, ACCMESO1; conditions: ACCMESO1, pleura, CFU ~14 days, wells with DMSO or 300 nM Compound 1, read-out: Chemotherapy nM IC50s
Method: as §1, §2

MERO14 = test: Colony formation (CFU) assay, MERO14; conditions: 336 h, CFU ~14 days, wells with DMSO or 300 nM Compound 1, read-out: Chemotherapy nM IC50s
Method: as §1, §2

MERO83 = test: Colony formation (CFU) assay, MERO83; conditions: 336 h, CFU ~14 days, wells with DMSO or 300 nM Compound 1, read-out: Chemotherapy nM IC50s
Method: as §1, §2

MSTO211H = test: Colony formation (CFU) assay, MSTO211H; conditions: pleura, CFU ~14 days, wells with DMSO or 300 nM Compound 1, read-out: Chemotherapy nM IC50s
Method: as §1, §2

NCIH1915 = test: Colony formation (CFU) assay, NCIH1915; conditions: NCI-H1915, 336 h; NCIH1915, lung; CFU ~14 days; wells with DMSO or 300 nM Compound 1; read-out: Chemotherapy nM IC50s
Method: as §1, §2

NCIH2452 = test: Colony formation (CFU) assay, NCIH2452; conditions: Homo sapiens, NCI-H2452, 336 h; NCIH2452, pleura; CFU ~14 days; wells with DMSO or 300 nM Compound 1; read-out: Chemotherapy nM IC50s
Method: as §1, §2

647V = test: Colony formation (CFU) assay, 647V; conditions: bladder, CFU ~14 days, wells with DMSO or 300 nM Compound 1, read-out: Chemotherapy nM IC50s
Method: as §1, §2

HCC1806 = test: Colony formation (CFU) assay, HCC1806; conditions: HCC1806, breast; CFU ~14 days; wells with DMSO or 300 nM Compound 1; read-out: Chemotherapy nM IC50s (converted)
Method: as §1, §2

HCT116 = test: Colony formation (CFU) assay, HCT116; conditions: HCT116, colon; CFU ~14 days; wells with DMSO or 300 nM Compound 1; read-out: Chemotherapy nM IC50s
Method: as §1, §2

KALS1 = test: Colony formation (CFU) assay, KALS1; conditions: KALS1, nervous system; CFU ~14 days; wells with DMSO or 300 nM Compound 1; read-out: Chemotherapy nM IC50s
Method: as §1, §2

KU1919 = test: Colony formation (CFU) assay, KU1919; conditions: KU1919, bladder; CFU ~14 days; wells with DMSO or 300 nM Compound 1; read-out: Chemotherapy nM IC50s
Method: as §1, §2

KYSE270 = test: Colony formation (CFU) assay, KYSE270; conditions: KYSE270, esophagus; CFU ~14 days; wells with DMSO or 300 nM Compound 1; read-out: Chemotherapy nM IC50s
Method: as §1, §2

KYSE70 = test: Colony formation (CFU) assay, KYSE70; conditions: KYSE70, esophagus; CFU ~14 days; wells with DMSO or 300 nM Compound 1; read-out: Chemotherapy nM IC50s
Method: as §1, §2

MDAMB231 = test: Colony formation (CFU) assay, MDAMB231; conditions: MDAMB231, breast; CFU ~14 days; wells with DMSO or 300 nM Compound 1; read-out: Chemotherapy nM IC50s
Method: as §1, §2

NCIH596 = test: Colony formation (CFU) assay, NCIH596; conditions: NCIH596, lung; CFU ~14 days; wells with DMSO or 300 nM Compound 1; read-out: Chemotherapy nM IC50s
Method: as §1, §2

SUM149PT = test: Colony formation (CFU) assay, SUM149PT; conditions: breast, CFU ~14 days, wells with DMSO or 300 nM Compound 1, read-out: Chemotherapy nM IC50s
Method: as §1, §2

UMUC3 = test: Colony formation (CFU) assay, UMUC3; conditions: UMUC3, bladder; CFU ~14 days; wells with DMSO or 300 nM Compound 1; read-out: Chemotherapy nM IC50s
Method: as §1, §2

[1] = chemotherapy agent in combination with 300 nM Compound 1

SMILES: CC[C@@]1(O)C(=O)OCc2c1cc1n(c2=O)Cc2cc3ccccc3nc2-1 [Campto., camptothecin]
synergy score (ASPC1; [1]): −5 | IC50 (ASPC1; Homo sapiens, 336 h, CFU ~14 days, wells with DMSO or 300 nM Compound 1, read-out: Chemotherapy nM IC50s): 3 nM | IC50 (CAPAN2): 11 nM | IC50 (CAPAN2; Homo sapiens, Capan-2, 336 h): 8 nM | IC50 (COV362): 274 nM | synergy score (GSU): 13 | IC50 (HCT15): 5 nM | IC50 (HPAC): 5 nM | IC50 (OVSAHO): 177 nM | IC50 (SW948; Homo sapiens, SW948, 336 h): 10 nM | IC50 (SW948): 6 nM | synergy score (SW948; [1]): (−3) | IC50 (UWB1289): 18 nM | synergy of combination with USP1 inhibitor (various cell lines): synergy was detected

IC50 (A549): 6870 nM | IC50 (ACCMESO1; ACC-MESO-1, 336 h): 172 nM | IC50 (MERO14): > 3000 nM | IC50 (MERO83): > 3000 nM | IC50 (MSTO211H; Homo sapiens, MSTO-211H, 336 h): 41 nM | IC50 (MSTO211H): 50 nM | IC50 (NCIH1915): 185 nM | IC50 (NCIH2452): 48 nM
SMILES: Nc1nc2[nH]cc(CCc3ccc(C(=O)N[C@@H](CCC(=O)O)C(=O)O)cc3)c2c(=O)[nH]1 [Pemetrex, pemetrexed]

SMILES: CO[C@@]12[C@H](COC(N)=O)C3=C(C(=O)C(C)=C(N)C3=O)N1C[C@@H]1N[C@@H]12 [Mito. C, mitomycin C]
IC50 (647V): 15 nM | IC50 (ACCMESO1): 10 nM and 13 nM | IC50 (HCC1806): 1 nM and 2 nM and < 1 nM | IC50 (HCT116): 19 nM | IC50 (KALS1): 632 nM | IC50 (KU1919): 16 nM | IC50 (KYSE270): 15 nM and 11 nM | IC50 (KYSE70): 14 nM and 12 nM | IC50 (MDAMB231): 14 nM | IC50 (NCIH596): 10 nM | IC50 (SUM149PT): 5 nM | IC50 (UMUC3): 18 nM and 12 nM
